Test results: ChEMBL document CHEMBL3885881, “DrugMatrix”

Species: Rattus norvegicus
Assay: DrugMatrix - Regimen: Daily Repeat
Format: toxicity, organism-based, Sprague-Dawley
Parameters: regimen Daily Repeat, gender Male, age 6-8 weeks
Conditions: in vivo, po, route oral GAVAGE, […]; for ABSOLUTE BASOPHIL / ABSOLUTE EOSINOPHIL / ABSOLUTE LYMPHOCYTE / ABSOLUTE MONOCYTE / ABSOLUTE SEGMENTED NEUTROPHIL / BASOPHIL / EOSINOPHIL / ERYTHROCYTE COUNT / HEMATOCRIT / HEMOGLOBIN / LEUKOCYTE COUNT / LYMPHOCYTE / MEAN CORPUSCULAR HEMOGLOBIN / MEAN CORPUSCULAR HEMOGLOBIN CONCENTRATION / MEAN CORPUSCULAR VOLUME / MONOCYTE / NEUTROPHIL / NUCLEATED RED BLOOD CELLS / PLATELET COUNT: tissue Blood; for ALANINE AMINOTRANSFERASE / ALBUMIN / ALKALINE PHOSPHATASE / ASPARTATE AMINOTRANSFERASE / BLOOD UREA NITROGEN / CARBON DIOXIDE / CHLORIDE / CHOLESTEROL / CREATINE PHOSPHOKINASE / CREATININE / GLUCOSE / LACTATE DEHYDROGENASE / LIPASE / PHOSPHORUS / POTASSIUM / SODIUM / TOTAL BILIRUBIN / TOTAL PROTEIN / URIC ACID: tissue Plasma
[1] = 10 mg/kg, 72 h, dose level Low, time 3 day
[2] = 10 mg/kg, 120 h, dose level Low, time 5 day
[3] = 25 mg/kg, 72 h, dose level High, time 3 day
[4] = 25 mg/kg, 120 h, dose level High, time 5 day

## Sc1ncnc2nc[nH]c12 [MERCAPTOPURINE ANHYDROUS]
[1]
  ABSOLUTE BASOPHIL: 0 CELLS/uL
  ABSOLUTE EOSINOPHIL: 96.67 CELLS/uL
  ABSOLUTE LYMPHOCYTE: 10655 CELLS/uL
  ABSOLUTE MONOCYTE: 48.33 CELLS/uL
  ABSOLUTE SEGMENTED NEUTROPHIL: 1066.67 CELLS/uL
  BASOPHIL: 0%
  EOSINOPHIL: 0.67%
  ERYTHROCYTE COUNT: 5.09 x10E6/uL
  HEMATOCRIT: 31.73%
  HEMOGLOBIN: 12.87 G/DL
  LEUKOCYTE COUNT: 11.87 x10E3/uL
  LYMPHOCYTE: 90.33%
  MEAN CORPUSCULAR HEMOGLOBIN: 25.3 pg
  MEAN CORPUSCULAR HEMOGLOBIN CONCENTRATION: 40.6 G/DL
  MEAN CORPUSCULAR VOLUME: 62.4 fL
  MONOCYTE: 0.33%
  NEUTROPHIL: 8.67%
  NUCLEATED RED BLOOD CELLS: 0 /100WBC
  PLATELET COUNT: 1148.67 x10E3/uL
  ALANINE AMINOTRANSFERASE: 66.33 u/L
  ALBUMIN: 3.9 G/DL
  ALKALINE PHOSPHATASE: 364.67 u/L
  ASPARTATE AMINOTRANSFERASE: 83 u/L
  BLOOD UREA NITROGEN: 13 mg/dL
  CARBON DIOXIDE: 30.33 mmol/L
  CHLORIDE: 99 MEQ/L
  CHOLESTEROL: 73.67 mg/dL
  CREATINE PHOSPHOKINASE: 175.33 u/L
  CREATININE: 0.15 mg/dL
  GLUCOSE: 164.33 mg/dL
  LACTATE DEHYDROGENASE: 112.33 u/L
  LIPASE: 11.33 u/L
  PHOSPHORUS: 11.03 mg/dL
  POTASSIUM: 6.32 MEQ/L
  SODIUM: 142.6 MEQ/L
  TOTAL BILIRUBIN: 0.2 mg/dL
  TOTAL PROTEIN: 5.6 G/DL
  URIC ACID: 1.4 mg/dL
[2]
  ABSOLUTE BASOPHIL: 0 CELLS/uL
  ABSOLUTE EOSINOPHIL: 128 CELLS/uL
  ABSOLUTE LYMPHOCYTE: 12203 CELLS/uL
  ABSOLUTE MONOCYTE: 203 CELLS/uL
  ABSOLUTE SEGMENTED NEUTROPHIL: 1366 CELLS/uL
  BASOPHIL: 0%
  EOSINOPHIL: 0.67%
  ERYTHROCYTE COUNT: 5.76 x10E6/uL
  HEMATOCRIT: 36.7%
  HEMOGLOBIN: 14.3 G/DL
  LEUKOCYTE COUNT: 13.9 x10E3/uL
  LYMPHOCYTE: 88.67%
  MEAN CORPUSCULAR HEMOGLOBIN: 24.83 pg
  MEAN CORPUSCULAR HEMOGLOBIN CONCENTRATION: 38.97 G/DL
  MEAN CORPUSCULAR VOLUME: 63.73 fL
  MONOCYTE: 1.33%
  NEUTROPHIL: 9.33%
  NUCLEATED RED BLOOD CELLS: 0 /100WBC
  PLATELET COUNT: 1127 x10E3/uL
  ALANINE AMINOTRANSFERASE: 61 u/L
  ALBUMIN: 4.33 G/DL
  ALKALINE PHOSPHATASE: 384.33 u/L
  ASPARTATE AMINOTRANSFERASE: 75 u/L
  BLOOD UREA NITROGEN: 15 mg/dL
  CARBON DIOXIDE: 29.33 mmol/L
  CHLORIDE: 100.33 MEQ/L
  CHOLESTEROL: 73.67 mg/dL
  CREATINE PHOSPHOKINASE: 274.33 u/L
  CREATININE: 0.22 mg/dL
  GLUCOSE: 153.67 mg/dL
  LACTATE DEHYDROGENASE: 111 u/L
  LIPASE: 12.67 u/L
  PHOSPHORUS: 10.1 mg/dL
  POTASSIUM: 6.41 MEQ/L
  SODIUM: 142.27 MEQ/L
  TOTAL BILIRUBIN: 0.17 mg/dL
  TOTAL PROTEIN: 5.97 G/DL
  URIC ACID: 1.13 mg/dL
[3]
  ABSOLUTE BASOPHIL: 0 CELLS/uL
  ABSOLUTE EOSINOPHIL: 0 CELLS/uL
  ABSOLUTE LYMPHOCYTE: 6679.67 CELLS/uL
  ABSOLUTE MONOCYTE: 205.33 CELLS/uL
  ABSOLUTE SEGMENTED NEUTROPHIL: 481.67 CELLS/uL
  BASOPHIL: 0%
  EOSINOPHIL: 0%
  ERYTHROCYTE COUNT: 6.41 x10E6/uL
  HEMATOCRIT: 40.73%
  HEMOGLOBIN: 15.47 G/DL
  LEUKOCYTE COUNT: 7.37 x10E3/uL
  LYMPHOCYTE: 91%
  MEAN CORPUSCULAR HEMOGLOBIN: 24.1 pg
  MEAN CORPUSCULAR HEMOGLOBIN CONCENTRATION: 38 G/DL
  MEAN CORPUSCULAR VOLUME: 63.4 fL
  MONOCYTE: 2.67%
  NEUTROPHIL: 6.33%
  NUCLEATED RED BLOOD CELLS: 0.33 /100WBC
  PLATELET COUNT: 972 x10E3/uL
  ALANINE AMINOTRANSFERASE: 61.67 u/L
  ALBUMIN: 4.17 G/DL
  ALKALINE PHOSPHATASE: 420.33 u/L
  ASPARTATE AMINOTRANSFERASE: 105.67 u/L
  BLOOD UREA NITROGEN: 12 mg/dL
  CARBON DIOXIDE: 28 mmol/L
  CHLORIDE: 99.33 MEQ/L
  CHOLESTEROL: 77.33 mg/dL
  CREATINE PHOSPHOKINASE: 602.33 u/L
  CREATININE: 0.16 mg/dL
  GLUCOSE: 163 mg/dL
  LACTATE DEHYDROGENASE: 320 u/L
  LIPASE: 13 u/L
  PHOSPHORUS: 11.97 mg/dL
  POTASSIUM: 6.85 MEQ/L
  SODIUM: 141.03 MEQ/L
  TOTAL BILIRUBIN: 0.2 mg/dL
  TOTAL PROTEIN: 5.8 G/DL
  URIC ACID: 1.57 mg/dL
[4]
  ABSOLUTE BASOPHIL: 0 CELLS/uL
  ABSOLUTE EOSINOPHIL: 80.67 CELLS/uL
  ABSOLUTE LYMPHOCYTE: 12020.67 CELLS/uL
  ABSOLUTE MONOCYTE: 204.67 CELLS/uL
  ABSOLUTE SEGMENTED NEUTROPHIL: 927.33 CELLS/uL
  BASOPHIL: 0%
  EOSINOPHIL: 0.67%
  ERYTHROCYTE COUNT: 5.62 x10E6/uL
  HEMATOCRIT: 34.93%
  HEMOGLOBIN: 13.6 G/DL
  LEUKOCYTE COUNT: 13.23 x10E3/uL
  LYMPHOCYTE: 91%
  MEAN CORPUSCULAR HEMOGLOBIN: 24.33 pg
  MEAN CORPUSCULAR HEMOGLOBIN CONCENTRATION: 39 G/DL
  MEAN CORPUSCULAR VOLUME: 62.3 fL
  MONOCYTE: 1.33%
  NEUTROPHIL: 7%
  NUCLEATED RED BLOOD CELLS: 0 /100WBC
  PLATELET COUNT: 1431.67 x10E3/uL
  ALANINE AMINOTRANSFERASE: 58 u/L
  ALBUMIN: 4.4 G/DL
  ALKALINE PHOSPHATASE: 341 u/L
  ASPARTATE AMINOTRANSFERASE: 91.33 u/L
  BLOOD UREA NITROGEN: 10.67 mg/dL
  CARBON DIOXIDE: 25 mmol/L
  CHLORIDE: 100.33 MEQ/L
  CHOLESTEROL: 73 mg/dL
  CREATINE PHOSPHOKINASE: 601.67 u/L
  CREATININE: 0.13 mg/dL
  GLUCOSE: 164 mg/dL
  LACTATE DEHYDROGENASE: 169.67 u/L
  LIPASE: 12.33 u/L
  PHOSPHORUS: 11.07 mg/dL
  POTASSIUM: 7.18 MEQ/L
  SODIUM: 142.8 MEQ/L
  TOTAL BILIRUBIN: 0.17 mg/dL
  TOTAL PROTEIN: 6.07 G/DL
  URIC ACID: 1.5 mg/dL
